Experimental data taken from US7550277B2, “D-amino acid dehydrogenase and method of making D-amino acids” (Codexis, Inc., priority 2005, dated 2009).

Experiments:
[1] = spontaneous racemization of the hydantoin at a pH above 8; depends on substituent at the 5-position; cited from earlier work
[2] = Activity of DAPDH enzymes for reductive amination of 2-keto acids (NADPH decrease at 340 nm); assay type: biochemical
Experimental: The mutant DAPDH enzyme was assayed spectrophotometrically by monitoring the decrease in concentration of NADPH. The typical reductive amination reaction contained the following: 100 mM sodium carbonate/bicarbonate buffer, pH 9.0, 200 mM NH4Cl, 25 mM 2-keto acid, and 0.2 mM NADPH. The decrease in absorbance at 340 nm was monitored and an NADPH extinction coefficient of 6.22 mM^−1cm^−1 was used to correlate absorbance to concentration. Protein concentrations were determined via the Bradford method ^19 using bovine serum albumin as a protein standard.

Row | Molecule | rate of racemization τ1/2 [1] | activity toward the reductive amination of 2-ketoacids to produce D-amino acids [2]
1 | CC(C)C1NC(=O)NC1=O (centres unmarked) [isopropylhydantoin] | 56 h | –
2 | O=C1NC(=O)C(Cc2ccccc2)N1 (centres unmarked) [benzylhydantoin] | 5 h | –
3 | O=C1NC(=O)C(c2ccccc2)N1 (centres unmarked) [phenylhydantoin] | 0.3 h | –
4 | tert-butylhydantoin | 120 h | –
5 | wild-type diaminopimelate dehydrogenase enzyme from Corynebacterium glutamicum: wild-type diaminopimelate dehydrogenase from Corynebacterium glutamicum (ATTC #13032), SEQ ID NO. 2 (protein, listed as Corynebacterium glutamicum) MTNIRVAIVGYGNLGRSVEKLIAKQPDMDLVGIFSRRATLDTKTPVFDVADVDKHADDVDVLFLCMGSATDIPEQAPKFAQFACTVDTYDNHRDIPRHRQVMNEAATAAGNVALVSTGWDPGMFSINRVYAAAVLAEHQQHTFWGPGLSQGHSDALRRIPGVQKAVQYTLPSEDALEKARRGEAGDLTGKQTHKRQCFVVADAADHERIENDIRTMPDYFVGYEVEVNFIDEATFDSEHTGMPHGGHVITTGDTGGFNHTVEYILKLDRNPDFTASSQIAFGRAAHRMKQQGQSGAFTVLEVAPYLLSPENLDDLIARDV | – | little or no activity
